The values that follow are results of earlier work, collected in PubChem BioAssay AID1259410 (Chemical Carcinogenesis Research Information System (CCRIS), 2018).

The data set deals with rodent tumor promotion studies, tumor incidence. The data set can be described thus: CCRIS tumor promotion studies.

SMILES strings stand for the structures.

Turning to `O=C1C=CC(=O)c2c(O)cccc21`, the outcome is listed as “skin: papilloma” (Carcinogen: 7,12-DIMETHYLBENZ[A]ANTHRACENE, 57-97-6, Doses [Carcinogen]: 25 NMOL IN 0.2 ML ACETONE ONCE, Doses [Promoter]: 440, 880, 1760 NMOL/MOUSE 1/WK FOR 40 WK BEGINNING 2 WK POST CARCINOGEN DOSE (STUDY DURATION: 42 WK), Doses [Promoter]: 440, 880, 1760 NMOL/MOUSE 1/WK FOR 40 WK BEGINNING 2 WK POST CARCINOGEN DOSE (STUDY DURATION: 42 WK), Route [Carcinogen]: DERMAL, Route [Promoter]: DERMAL, Species: MOUSE, Strain/Sex: SENCAR/FEMALE); “skin: papilloma” (Carcinogen: 7,12-DIMETHYLBENZ[A]ANTHRACENE, 57-97-6, Doses [Carcinogen]: 25 NMOL IN 0.2 ML ACETONE ONCE, Doses [Promoter]: 1760 NMOL/MOUSE 2/WK FOR 40 WK BEGINNING 2 WK POST CARCINOGEN DOSE (STUDY DURATION: 42 WK), Route [Carcinogen]: DERMAL, Route [Promoter]: DERMAL, Species: MOUSE, Strain/Sex: SENCAR/FEMALE); “skin: papilloma” (Carcinogen: 7,12-DIMETHYLBENZ[A]ANTHRACENE, 57-97-6, Doses [Carcinogen]: 25 NMOL IN 0.2 ML ACETONE ONCE, Doses [Promoter]: 1760 NMOL/MOUSE 3/WK FOR 40 WK BEGINNING 2 WK POST CARCINOGEN DOSE (STUDY DURATION: 42 WK), Route [Carcinogen]: DERMAL, Route [Promoter]: DERMAL, Species: MOUSE, Strain/Sex: SENCAR/FEMALE); “skin: carcinoma” (Carcinogen: 7,12-DIMETHYLBENZ[A]ANTHRACENE, 57-97-6, Doses [Carcinogen]: 25 NMOL IN 0.2 ML ACETONE ONCE, Doses [Promoter]: 1760 NMOL/MOUSE 3/WK FOR 60 WK BEGINNING 2 WK POST CARCINOGEN DOSE (STUDY DURATION: 60 WK), Route [Carcinogen]: DERMAL, Route [Promoter]: DERMAL, Species: MOUSE, Strain/Sex: SENCAR/FEMALE).

With `C[C@H](N)C(=O)NCC(=O)N[C@H]1CSSC[C@@H](C(=O)O)NC(=O)[C@H](CO)NC(=O)[C@H]([C@@H](C)O)NC(=O)[C@H](Cc2ccccc2)NC(=O)[C@H]([C@@H](C)O)NC(=O)[C@H](CCCCN)NC(=O)[C@H](Cc2c[nH]c3ccccc23)NC(=O)[C@H](Cc2ccccc2)NC(=O)[C@H](Cc2ccccc2)NC(=O)[C@H](CC(N)=O)NC(=O)[C@H](CCCCN)NC1=O`, the outcome (Carcinogen: N-METHYL-N'-NITRO-N-NITROSOGUANIDINE, 70-25-7, Doses [Carcinogen]: 25 UG/ML DRINKING WATER FOR 25 WK, Doses [Promoter]: 0, 100, 200 UG/KG IN OLIVE OIL 1/2 D BEGINNING POST CARCINOGEN DOSE FOR DURATION OF STUDY (STUDY DURATION: 52 WK), Doses [Promoter]: 0, 100, 200 UG/KG IN OLIVE OIL 1/2 D BEGINNING POST CARCINOGEN DOSE FOR DURATION OF STUDY (STUDY DURATION: 52 WK), Route [Carcinogen]: ORAL, Route [Promoter]: SUBCUTANEOUS, Species: RAT, Strain/Sex: WISTAR/MALE) was “glandular stomach: adenocarcinoma”.

As to `O=c1cc(CO)occ1O`, the outcome (Carcinogen: N-NITROSOBIS(2-HYDROXYPROPYL)AMINE;53609-64-6, Doses [Carcinogen]: 2000 MG/KG BW ONCE, Doses [Promoter]: 0, 0.002%, 0.008%, 0.03%, 0.125%, 0.5%, 2% IN DIET FOR 20 WK BEGINNING 1 WK POST CARCINOGEN TREATMENT (STUDY DURATION: 2, Doses [Promoter]: 0, 0.002%, 0.008%, 0.03%, 0.125%, 0.5%, 2% IN DIET FOR 20 WK BEGINNING 1 WK POST CARCINOGEN TREATMENT (STUDY DURATION: 2, Route [Carcinogen]: SUBCUTANEOUS, Route [Promoter]: ORAL, Species: RAT, Strain/Sex: F344/MALE) is on record as “thyroid gland: adenoma, carcinoma”.
